According to patent publication US20260167629A1, “NOVEL INDAZOLE DERIVATIVE OR PHARMACEUTICALLY ACCEPTABLE SALT THEREOF, AND USE THEREOF” (KOREA UNIVERSITY RESEARCH AND BUSINESS FOUNDATION, priority 2022, published 2026):

Columns and labels:
[1] = tested on: JIMT-1 breast cancer cell line xenograft; experiment: Tumor growth in xenograft mouse model transplanted with JIMT-1; format: in vivo, Balb/c nude mice; settings: intraperitoneally, 30 mg/kg compound 18c or 20 mg/kg compound 11k; for tumor volume / tumor weight: compared to the control group
Protocol: This experiment was performed in an in vivo environment using a xenograft mouse model transplanted with the JIMT-1 breast cancer cell line.
6-week-old mice (Balb/c nude mice) were purchased and raised in an environment where they could freely access food and water. The mice were acclimated for more than 7 days, and then were transplanted with tumor cells. Tumor cells were injected subcutaneously into the mammary gland tissue of JIMT-1 breast cancer cells at a density of 3×10^6 cells/mL per individual, and when the tumor reached a size of 50 to 100 mm^3, the indazole derivative of the present disclosure was administered intraperitoneally, and the tumor growth was measured. The experimental groups were treated with either 30 mg/kg of compound 18c (formula 1-16) or 20 mg/kg of compound 11k (formula 1-7), and tumor volume, tumor weight, body weight, and the like were measured every 3 to 4 days from the time of administration until the end of the study.

[2] = tested on: BT474 breast cancer cell line; experiment: Flow cytometry DNA content (PI), cell cycle arrest and cell death, BT474; format: cell-based; settings: BT474, 5 and 10 μM, 72 hours, flow cytometer
Protocol: (§1) The degree of cancer cell death by the indazole derivative of the present disclosure was measured by analyzing DNA content using a flow cytometer. Cells were treated with compound 18c (formula 1-16) and compound 11k (formula 1-7) at concentrations of 0 (DMSO), 5, and 10 μM for 72 hours, and then the cells were harvested. Thereafter, the cells were fixed with 95% ethanol containing 0.5% Tween-20 for 24 hours, and stained with propidium iodide (PI, 50 μg/mL) and RNase (50 μg/mL) for 30 minutes. Afterwards, the degree of cancer cell death was analyzed using a flow cytometer.
(§2) In general, the cell cycle is divided into G1 (cell growth phase)—S(cell replication phase)—G2/M (cell division phase) according to the content of intracellular DNA. […] The results of this cell death within the cell cycle are manifested by the Sub-G1 region, and the percentage of Sub-G1 induced by the indazole derivative of the present disclosure is shown numerically in FIGS. 5B and 6B.

BT474 cell line = experiment: MTS cell viability assay in BT474 cell line; format: cell-based; settings: Homo sapiens, BT-474, BT474, 72 hours
Protocol: (§3) Specifically, cells were attached to 96 well plates for 24 hours, and then treated with the indazole derivatives for 72 hours. Thereafter, the cells were chromogenized with MTS for 4 hours, and the absorbance was measured at 490 nm using a Spectramax Plus384 microplate analyzer.
(§4) HER2 positive breast cancer (HER2+BC) cell lines, BT474 (cell seeding numbers: 2.4 (BT474)×10^4 cells/wells (confluency≥50%)) sensitive to trastuzumab and JIMT-1 (cell seeding numbers: 1.0 (JIMT-1)×10^4 cells/wells (confluency>30%)) resistant to trastuzumab were used in the experiment.
(§5) In this case, the cell lines were treated with the benzopyran derivative at a concentration of 10 μM for 72 hours and the cell lines were treated with the indazole derivative at a concentration of 10 μM for 72 hours, and then the cell viability was measured.

[3] = tested on: cleaved caspase-3, cleaved caspase-7, PARP in JIMT-1 cell line; experiment: Western blotting of apoptosis-related proteins, JIMT-1; format: cell-based; settings: JIMT-1, 10 μM, 72 hours; for amounts of cleaved caspase-3 and cleaved caspase-7: compared to the control group
Protocol: To investigate the mechanism of cell death by compound 18c (formula 1-16) and compound 11k (formula 1-7), the activation of apoptosis-related factor caspase family members was determined through western blotting.
(§6) To perform western blotting, BT-474 and JIMT-1 cell lines were treated with control (DMSO), compound 18c, and compound 11k at concentrations of 10 μM each for 72 hours, and then lysed in lysis buffer (30 mM NaCl, 0.5% Triton X-100, 50 mM Tris-HCl; pH 7.4) containing phosphatase and protease inhibitors. The proteins present in the supernatant were harvested. The protein concentration was measured using a Bradford protein assay kit, and 30 μg of protein was taken equally from each experimental group. These proteins were electrophoresed on SDS-Polyacrylamide gels (8-15%), and electrically transferred to a nitrocellulose membrane. The membrane was reacted with primary antibodies [pro PARP (1:1000), cleaved PARP (1:2000), cleaved caspase-3 (1:1000), cleaved caspase-7 (1:1000), β-actin (1:5000)] diluted in 5% bovine serum albumin (BSA) at 4° C. for 24 hours, followed by a secondary antibody, horseradish peroxidase (HRP)-conjugated rabbit IgG (1:3000) for 2 hours at room temperature. The signal intensity of the above proteins was checked by color development using an Enhanced Chemiluminescence Kit and x-ray film.

[4] = tested on: JIMT-1 breast cancer cell line; experiment: Flow cytometry DNA content (PI), cell cycle arrest and cell death, JIMT-1; format: cell-based; settings: JIMT-1, 5 and 10 μM, 72 hours, flow cytometer
Protocol: as §1, §2

JIMT-1 cell line = experiment: MTS cell viability assay in JIMT-1 cell line; format: cell-based; settings: Homo sapiens, JIMT-1, 72 hours
Protocol: The control group was treated with DMSO as an untreated group (0 μM) of the indazole derivative of the present disclosure.
as §3, §4, §5

[5] = tested on: Hsp90 clients in JIMT-1 cell line; experiment: Western blotting of Hsp90 clients, JIMT-1; format: cell-based; settings: JIMT-1, 10 μM, 72 hours
Protocol: as §6
(§7) Western blotting was used to investigate whether Hsp90 inhibitors, compound 18c (formula 1-16) and compound 11k (formula 1-7), could downregulate the expression and activity (phosphorylation) of HER2 and HER3, which are representative clients of Hsp90, in BT474 and JIMT-1 cell lines. The expression of Akt, MEK, ERK, Bcl-2, Cyclin D1, and Survivin, which are key factors for cell survival as Hsp90 clients, was also investigated. The western blotting was performed by the method that was used in Experimental Example 2.3.
(§8) The BT474 and JIMT-1 cell lines were treated with compound 18c and compound 11k at a concentration of 10 μM for 72 hours.

[6] = tested on: Hsp90 clients in BT474 cell line; experiment: Western blotting of Hsp90 clients, BT474; format: cell-based; settings: BT474, 10 μM, 72 hours
Protocol: as §6, §7, §8

Row | Compound | tumor size (visual inspection) [1] | tumor volume [1] | tumor weight [1] | G2/M phase of the cell cycle [2] | cell death (Sub-G1 population) [2] | IC50 (BT474 cell line) [µM] | cleaved-PARP (89 kDa) [3] | amounts of cleaved caspase-3 and cleaved caspase-7 [3] | G2/M phase of the cell cycle [4] | cell death (Sub-G1 population) [4] | IC50 (JIMT-1 cell line) [µM] | expression of HER2 and HER3 [5] | expression of activated forms phospho-HER2 and phospho-HER3 [5] | expression of cell proliferation factors Akt, MEK, ERK, Bcl-2, Cyclin D1, and Survivin [5] | expression of HER2 and HER3 [6] | expression of activated forms phospho-HER2 and phospho-HER3 [6] | expression of cell proliferation factors Akt, MEK, ERK, Bcl-2, Cyclin D1, and Survivin [6]
1 | COc1c(C(=O)Nc2ccc3c(C)nn(CCC4CCN(C)CC4)c3c2)ccc2c1C=CC(C)(C)O2 [compound 11k, 5-Methoxy-2,2-dimethyl-N-(3-methyl-1-(2-(1-methylpiperidin-4-yl)ethyl)-1H-indazol-6-yl)-2H-chromene-6-carboxamide] | reduced by more than half | significantly reduced | significantly reduced | arrested the G2/M phase | significantly induced cell death | 8.48 | increase | significantly increased | arrested the G2/M phase | significantly induced cell death | 4.06 | decreased | significantly reduced | inhibited the expression | decreased | significantly reduced | inhibited the expression
2 | COCCn1nc(NC(=O)c2ccc3c(c2OC)C=CC(C)(C)O3)c2ccccc21 [compound 18c, 5-Methoxy-N-(1-(2-methoxyethyl)-1H-indazol-3-yl)-2,2-dimethyl-2H-chromene-6-carboxamide] | reduced by more than half | significantly reduced | significantly reduced | arrested the G2/M phase | significantly induced cell death | 4.98 | increase | significantly increased | arrested the G2/M phase | significantly induced cell death | 4.6 | decreased | significantly reduced | inhibited the expression | decreased | significantly reduced | inhibited the expression
